From patent US20240262817A1, “QUINAZOLINE DERIVATIVES TARGETING R(CCUG) REPEATS IN MYOTONIC DYSTROPHY TYPE 2” (University of Florida Research Foundation, Incorporated, priority 2021, published 2024)
“Also recorded” adds a separate entry of the source.

Tests used:
[1] = target: r(CCUG)12; assay: Microscale thermophoresis (MST) affinity for r(CCUG)12; format: binding; conditions: read-out: Kd,app for r(CCUG)12
Description: (§1) Affinity measurements: Binding affinity measurements were performed via microscale thermophoresis (MST) on a Monolith NT.115 system (NanoTemperTechnologies) with Cy5-labeled (CCUG)12 (SEQ ID NO: 15) (5′-Cy5-GCG(CCUG)12CGC. SEQ ID NO:13; Dharmacon) and Cy5-labeled base pair control (BP; 5′-Cy5-GCG(CCUG)(GCAG)5CGC, SEQ ID NO:14; Dharmacon), which were deprotected according to the manufacturer's protocol and then desalted using a PD-10 column (GE LifeSciences) per the manufacturer's recommended procedure. RNA (5 nM) was prepared in 8 mM Na2HPO4, 185 mM NaCl, 1 mM EDTA and folded by heating at 60° C. for 5 min and slowly cooling to room temperature. Compound 1:1 dilution was prepared using 1×MST Buffer (8 mM Na2HPO4, 185 mM NaCl, 1 mM EDTA) and 0.1% (v/v) Tween-20 was added. After cooling the RNA solution was added to the compound solution (0.05% (v/v) Tween-20 final concentration). Samples were incubated for 30 min at room temperature and then loaded into standard capillaries (NanoTemper Technologies). […] Fluorescence was detected using excitation wavelengths of 605-645 nm and emission wavelengths of 680-685 nm. The resulting data were analyzed by thermophoresis analysis and fitted using a quadratic binding equation in the MST analysis software (NanoTemper Technologies). Dissociation constants were then determined using equation 3. […]

[2] = test system: MAP4K4 exon 22a splicing (NOVA-dependent) in DM2 fibroblasts; assay: MAP4K4 exon 22a splicing via RT-PCR in DM2 fibroblasts; format: cell-based
Description: (§2) Cell lines and cell culture: Compounds were tested in two cell lines: (i) DM2 patient-derived fibroblasts (generous gift from University of Florida, Center for NeuroGenetics) and (ii) fibroblasts from a healthy donor (wild-type; WT GM07492; Coriell Institute). Cells were maintained at 37° ° C. with 5% CO2. DM2 fibroblasts were cultured in DMEM/high glucose (HyClone) supplemented with 20% FBS (Sigma) and 1% Antibiotic-Antimycotic solution (Corning). Wild-type fibroblasts were cultured in MEM (Corning) supplemented with 10% FBS, 1% Glutagro (Corning), and 1% Antibiotic-Antimycotic solution.
(§3) Evaluation of pre-mRNA splicing via RT-PCR: Pre-mRNA splicing was analyzed as previously described.^10 Briefly, cells were grown in 6-well plates and treated with the desired compound in growth medium at ˜40% confluency. After 48 h, the cells were lysed, and total RNA was harvested using a Zymo Quick RNA Miniprep Kit. Approximately 1 μg of total RNA was reverse transcribed using a qScript cDNA synthesis kit (20 μL of total reaction volume, Quanta BioSciences); 2 μL of the RT reaction was used for PCR using GoTaq DNA polymerase (Promega). […] Gels were quantified using ImageJ. Percent rescue was calculated by dividing the difference between treated and untreated DM2 samples by the difference between untreated DM2 and WT samples (Equation 2).

[3] = test system: r(CCUG)exp-MBNL1 nuclear foci in DM2 patient-derived fibroblasts; assay: Nuclear foci by RNA FISH and MBNL1 immunofluorescence; format: cell-based; design: dose or concentration left out as unconfirmed
Description: as §2
Evaluation of nuclear foci via RNA fluorescence in situ hybridization (FISH): RNA FISH was used to determine the small molecules' effects on the number of nuclear foci as previously described.^10 The number of foci were counted in 40 nuclei/replicate (120 total nuclei counted); n=3 replicates; 1 independent experiment.

[4] = test system: CNBP intron 1 in wild-type fibroblasts; assay: CNBP intron 1 levels via RT-qPCR in wild-type fibroblasts; format: cell-based
Description: as §2
Evaluation of CNBP abundance via RT-qPCR: CNBP abundance was evaluated as previously described.^10 Briefly, cells were grown in 6-well plates and treated with the desired compound in growth medium at 40% confluency. […] Approximately 1 μg of total RNA was reverse transcribed using a qScript cDNA synthesis kit (20 μL total reaction volume, Quanta BioSciences); 2 μL of the reverse transcription (RT) reaction was used for each primer pair (Table S1) for quantitative PCR with SYBR Green Master Mix, performed on a QuantStudio 5, 384-well Block Real-Time PCR System (Applied Biosciences). Relative abundance was determined by normalizing to GAPDH (n=6 replicates per concentration; 2 independent experiments).

[5] = test system: DM2 patient-derived fibroblasts; assay: Cell viability by CellTiter-Glo; format: cell-based
Description: as §2
Evaluation of cell viability: Compound toxicity in DM2 fibroblasts was evaluated using a CellTiter-Glo Kit (Promega) as described in the manufacturer's protocol. Briefly, after 48 h treatment in 96-wells plates, 100 μL of the CellTiter-Glo reagent was added to each well. The plate was then incubated at room temperature for 10 min, and luminescence was measured using BioTek FLX-800 luminescence plate reader (n=6 replicates; 1 independent experiment).

[6] = test system: IR exon 11 inclusion in wild-type fibroblasts; assay: IR exon 11 inclusion via RT-PCR in wild-type fibroblasts; format: cell-based
Description: as §2, §3

[7] = target: base-paired RNA that does not contain internal loops; assay: Microscale thermophoresis (MST) affinity for base pair control RNA; format: binding
Description: as §1

## Cc1ccc2nc(Nc3ccc4nc(C)sc4c3)nc(NCCCO)c2c1 [Compound 63, 3-((6-methyl-2-((2-methylbenzo[d]thiazol-6-yl)amino)quinazolin-4-yl)amino)propan-1-ol]
[1]
  Kd: 192 ± 20 nM
[2]
  effect on MAP4K4 exon 22a splicing: did not affect; also recorded: does not affect
[3]; 63 vs untreated
  reduction of number of nuclear foci per cell: ~30%
[3]; untreated 7±1
  number of r(CCUG)exp-MBNL1 nuclear foci per cell: 5±0.5
[4]
  effect on CNBP intron 1 levels: no effect
[5]; DM2 fibroblasts
  toxicity as stated in legend of FIG. 3C: non-toxic
[5]; at 5 μM
  toxicity in DM2 patient-derived fibroblasts: no toxicity
[6]
  effect on IR exon 11 inclusion: did not affect; also recorded: no effect
[7]
  Kd: > 20000 nM
  binding to base-paired RNA that does not contain internal loops: no binding was observed
